From patent US10894777B2, “TG2 inhibitor piperazine compounds and uses thereof” (UNIVERSITY OF OTTAWA, priority 2016, dated 2021)
Like-named read-outs stand apart in the source and are kept apart here.

Biological target: T1, TG2 (Homo sapiens, UniProt P21980)
T1 sequence (P21980 1-687): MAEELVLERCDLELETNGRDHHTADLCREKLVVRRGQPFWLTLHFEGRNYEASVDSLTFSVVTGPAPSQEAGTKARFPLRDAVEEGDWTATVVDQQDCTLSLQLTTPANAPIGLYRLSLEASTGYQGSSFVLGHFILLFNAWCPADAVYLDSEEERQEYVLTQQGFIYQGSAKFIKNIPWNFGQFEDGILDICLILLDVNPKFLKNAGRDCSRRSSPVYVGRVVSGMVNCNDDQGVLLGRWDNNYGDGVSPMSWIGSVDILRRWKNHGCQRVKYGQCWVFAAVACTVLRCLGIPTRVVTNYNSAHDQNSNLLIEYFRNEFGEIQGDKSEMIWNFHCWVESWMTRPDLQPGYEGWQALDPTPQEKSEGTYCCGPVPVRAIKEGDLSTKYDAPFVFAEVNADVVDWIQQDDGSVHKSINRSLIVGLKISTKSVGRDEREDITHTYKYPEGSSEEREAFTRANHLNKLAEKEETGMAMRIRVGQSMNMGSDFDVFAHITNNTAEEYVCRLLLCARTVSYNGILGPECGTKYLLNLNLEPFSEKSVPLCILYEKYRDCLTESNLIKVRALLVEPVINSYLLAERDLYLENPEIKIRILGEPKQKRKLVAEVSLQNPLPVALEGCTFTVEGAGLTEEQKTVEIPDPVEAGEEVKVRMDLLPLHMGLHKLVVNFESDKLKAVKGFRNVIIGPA
Test: Kinetic inactivation of purified recombinant human TG2, continuous spectrophotometric activity assay (Examples 3, 10)
Format: biochemical
Design: made in house
Protocol: Kinetic studies were carried out in vitro, using purified recombinant human TG2 (Roy, I. et al., Protein Expr. Purif. 87: 41-46, 2013) and a direct, continuous spectrophotometric activity assay (Leblanc, A. et al., Biochemistry 40: 8335-8342, 2001).
Kinetics. Kinetic runs were performed at 25° C. in 100 mM MOPS buffer (pH 7.0) containing 3 mM CaCl2 and 50 μM EDTA. […] Stock solutions of the substrate and inhibitors were prepared in DMF such that the final concentration of this co-solvent was constant at 10% v/v. Reactions were initiated with the addition of enzyme with an activity of approximately 0.05 U/mL. Kinetic evaluation was carried out by the method of Stone and Hofsteenge (Stone, S. R. and Hofsteenge, J., Biochem. J. 230: 497-502, 1985). […] Observed first-order rate constants of inactivation were determined from non-linear regression, to a mono-exponential model. These rate constants were in turn fit to equation 1 by non-linear regression, providing the kinetic parameters
Kinetic parameters were determined as described above.

kinact (Table 4): 0.0116 s⁻¹
kinact/KI (read-out: kinact/KI (?M^−1min^−1), Table 1): 130000 M⁻¹ min⁻¹
kinact/KI (read-out: kinact/Ki (μM^−1 min^−1), Table 4, for ^a no saturation observed, efficiency obtained from initial slope): 165000 M⁻¹ min⁻¹
Compound: C=CC(=O)NCCCC[C@H](NC(=O)OCc1ccccc1)C(=O)N1CCN(C(=O)c2cc3ccc(O)cc3oc2=O)CC1 [VA5, (S)-Benzyl(6-acrylamido-1-(4-(7-hydroxy-2-oxo-2H-chromene-3-carbonyl)piperazin-1-yl)-1-oxohexan-2-yl)carbamate]
